In the oligonucleotide strings, read from the 5' end, every base follows the letter of its sugar. An asterisk marks phosphorothioate; unmarked linkages are phosphodiester. Other units and linkages are bracketed, terminal groups are in braces. A string of capitals states the bases alone. e = 2'-O-(2-methoxyethyl) (MOE); [5mC] = 5-methylcytosine; d = 2'-deoxy (DNA)
What was measured:
human Factor XI mRNA [1] = test: Dose-dependent inhibition and IC50 in HepG2 cells, electroporation (Example 15); format: cell-based
Experimental: Cells were plated at a density of 20,000 cells per well and transfected using electroporation with 123.46 nM, 370.37 nM, 1,111.11 nM, 3,333.33 nM and 10,000 nM concentrations of antisense oligonucleotide, as specified in Table 52. After a treatment period of approximately 16 hours, RNA was isolated from the cells and Factor XI mRNA levels were measured by quantitative real-time PCR. Human Factor XI primer probe set RTS 2966 was used to measure mRNA levels. Factor XI mRNA levels were adjusted according to total RNA content, as measured by RIBOGREEN. Results are presented as percent inhibition of Factor XI, relative to untreated control cells.

human Factor XI mRNA [2] = test: Dose-dependent inhibition and IC50 in HepG2 cells, microwalk gapmers, electroporation (Example 16); format: cell-based
Experimental: These gapmers were tested at various doses in HepG2 cells. Cells were plated at a density of 20,000 cells per well and transfected using electroporation with 375 nM, 750 nM, 1,500 nM, 3,000 nM, 6,000 nM and 12,000 nM concentrations of antisense oligonucleotide, as specified in Table 54. After a treatment period of approximately 16 hours, RNA was isolated from the cells and Factor XI mRNA levels were measured by quantitative real-time PCR. Human Factor XI primer probe set RTS 2966 was used to measure mRNA levels. Factor XI mRNA levels were adjusted according to total RNA content, as measured by RIBOGREEN. Results are presented as percent inhibition of Factor XI, relative to untreated control cells.
ISIS 416850, ISIS 416858, ISIS 445522, and ISIS 445531 (see Table 52 above) were re-tested in vitro along with the microwalk gapmers under the same conditions described above.
The chimeric antisense oligonucleotides in Table 53 were designed as 3-8-3 MOE, 4-8-4 MOE, 2-10-2 MOE, 3-10-3 MOE, or 4-10-4 MOE gapmers. The 3-8-3 gapmer is 14 nucleotides in length, wherein the central gap segment is comprised of eight 2′-deoxynucleotides and is flanked on both sides (in the 5′ and 3′ directions) by wings comprising three nucleotides each. The 4-8-4 gapmer is 16 nucleotides in length, wherein the central gap segment is comprised of eight 2′-deoxynucleotides and is flanked on both sides (in the 5′ and 3′ directions) by wings comprising four nucleotides each. The 2-10-2 gapmer is 14 nucleotides in length, wherein the central gap segment is comprised of ten 2′-deoxynucleotides and is flanked on both sides (in the 5′ and 3′ directions) by wings comprising two nucleotides each. The 3-10-3 gapmer is 16 nucleotides in length, wherein the central gap segment is comprised of ten 2′-deoxynucleotides and is flanked on both sides (in the 5′ and 3′ directions) by wings comprising three nucleotides each. The 4-10-4 gapmer is 18 nucleotides in length, wherein the central gap segment is comprised of ten 2′-deoxynucleotides and is flanked on both sides (in the 5′ and 3′ directions) by wings comprising four nucleotides each. For each of the motifs (3-8-3, 4-8-4, 2-10-2, 3-10-3, and 4-10-4), each nucleotide in the 5′ wing segment and each nucleotide in the 3′ wing segment has a 2′-MOE modification. The internucleoside linkages throughout each gapmer are phosphorothioate (P═S) linkages. All cytidine residues throughout each gapmer are 5-methylcytidines. “Human Target start site” indicates the 5′-most nucleotide to which the gapmer is targeted in the human sequence. “Human Target stop site” indicates the 3′-most nucleotide to which the gapmer is targeted in the human sequence. Each gapmer listed in Table 53 is targeted to SEQ ID NO: 1 (GENBANK Accession No. NM_000128.3). Each gapmer is Table 53 is also fully cross-reactive with the rhesus monkey Factor XI gene sequence, designated herein as SEQ ID NO: 274 (exons 1-15 GENBANK Accession No. NW—001118167.1). ‘Rhesus monkey start site’ indicates the 5′-most nucleotide to which the gapmer is targeted in the rhesus monkey sequence. ‘Rhesus monkey stop site’ indicates the 3′-most nucleotide to which the gapmer is targeted to the rhesus monkey sequence.
The first two listed gapmers in Table 54 are the original gapmers (ISIS 416850 and ISIS 416858) from which the remaining gapmers were designed via microwalk and are designated by an asterisk.

Factor XI mRNA = test: Cynomolgus monkeys, 25 mg/kg: liver Factor XI RNA analysis (Example 30); format: in vivo; details: for % inhibition of Factor XI mRNA in liver relative to the PBS control: 25 mg/kg s.c., day 55
Experimental: (§1) Groups, each consisting of two male and two female monkeys, were injected subcutaneously with 25 mg/kg of ISIS 416850, ISIS 449709, ISIS 445522, ISIS 449710, ISIS 449707, ISIS 449711, ISIS 449708, 416858 and ISIS 445531. Antisense oligonucleotide was administered to the monkeys at 25 mg/kg three times per week for week 1 and 25 mg/kg twice per week for weeks 2 to 8. A control group, consisting of two male and two female monkeys was injected subcutaneously with PBS according to the same dosing regimen. Body weights were taken 14 days and 7 days before the start of treatment and were then measured weekly throughout the treatment period. Blood samples were collected 14 days and 5 days before the start of treatment and subsequently several times during the dosing regimen for measurement of various hematologic factors. On day 55, the monkeys were euthanized by exsanguination while under deep anesthesia, and organs harvested for further analysis.
On day 55, RNA was extracted from liver tissue for real-time PCR analysis of Factor XI using primer probe set LTS00301. Results are presented as percent inhibition of Factor XI, relative to PBS control.

Factor XI protein = test: Cynomolgus monkeys: plasma Factor XI protein ELISA (Example 30); format: in vivo; details: for Inhibition of Factor XI protein relative to the PBS control: 25 mg/kg s.c., plasma ELISA
Experimental: as §1
Plasma samples from all monkey groups taken on different days were analyzed by a sandwich-style ELISA assay (Affinity Biologicals Inc.) using an affinity-purified polyclonal anti-Factor XI antibody as the capture antibody and a peroxidase-conjugated polyclonal anti-Factor XI antibody as the detecting antibody. Monkey plasma was diluted 1:50 for the assay. Peroxidase activity was expressed by incubation with the substrate o-phenylenediamine. The color produced was quantified using a microplate reader at 490 nm and was considered to be proportional to the concentration of Factor XI in the samples.
The results are presented in Table 148, expressed as percentage reduction relative to that of the PBS control.

| Substance | percent inhibition of Factor XI mRNA (human Factor XI mRNA [1]; electroporation, 123.47 nM) | percent inhibition of Factor XI mRNA (human Factor XI mRNA [1]; electroporation, 370.37 nM) | percent inhibition of Factor XI mRNA (human Factor XI mRNA [1]; electroporation, 1,111.11 nM) | percent inhibition of Factor XI mRNA (human Factor XI mRNA [1]; electroporation, 3,333.33 nM) | percent inhibition of Factor XI mRNA (human Factor XI mRNA [1]; electroporation, 10,000.0 nM) | percent inhibition of Factor XI mRNA (human Factor XI mRNA [2]; electroporation, 375 nM) | percent inhibition of Factor XI mRNA (human Factor XI mRNA [2]; electroporation, 750 nM) | percent inhibition of Factor XI mRNA (human Factor XI mRNA [2]; electroporation, 1,500 nM) | percent inhibition of Factor XI mRNA (human Factor XI mRNA [2]; electroporation, 3,000 nM) | percent inhibition of Factor XI mRNA (human Factor XI mRNA [2]; electroporation, 6,000 nM) | percent inhibition of Factor XI mRNA (human Factor XI mRNA [2]; electroporation, 12,000 nM) | % inhibition of Factor XI mRNA in liver relative to the PBS control (Factor XI mRNA) | Inhibition of Factor XI protein relative to the PBS control (Factor XI protein; Day 10) | Inhibition of Factor XI protein relative to the PBS control (Factor XI protein; Day 17) | Inhibition of Factor XI protein relative to the PBS control (Factor XI protein; Day 24) | Inhibition of Factor XI protein relative to the PBS control (Factor XI protein; Day 31) | Inhibition of Factor XI protein relative to the PBS control (Factor XI protein; Day 38) | Inhibition of Factor XI protein relative to the PBS control (Factor XI protein; Day 45) | Inhibition of Factor XI protein relative to the PBS control (Factor XI protein; Day 52) | Inhibition of Factor XI protein relative to the PBS control (Factor XI protein; Day 55) | other results |
| --- | --- | --- | --- | --- | --- | --- | --- | --- | --- | --- | --- | --- | --- | --- | --- | --- | --- | --- | --- | --- | --- |
| 416850 (antisense TGCACAGTTTCTGGCAGGCC; 5-10-5 gapmer, wing sugar chemistry not given here, further chemistry not given here) [compound 416850] | 0% | 12% | 36% | 74% | 73% | 40% | 59% | 69% | 87% | 90% | 95% | 68% | 20% | 31% | 38% | 52% | 51% | 53% | 53% | 58% | Inhibition of Factor XI protein relative to the PBS control (Factor XI protein; Day −5): 0%; Inhibition of Factor XI protein relative to the PBS control (Factor XI protein; Day −14): 0% |
| 416858 (antisense ACGGCATTGGTGCACAGTTT; 5-10-5 gapmer, wing sugar chemistry not given here, further chemistry not given here) [compound 416858] | 0% | 27% | 36% | 64% | 70% | 31% | 35% | 78% | 85% | 90% | 93% | 89% | 36% | 49% | 62% | 68% | 74% | 79% | 81% | 81% | Inhibition of Factor XI protein relative to the PBS control (Factor XI protein; Day −5): 0%; Inhibition of Factor XI protein relative to the PBS control (Factor XI protein; Day −14): 4% |
| 445522 (antisense eG*e[5mC]*eA*e[5mC]*eA*dG*dT*dT*dT*d[5mC]*dT*dG*dG*e[5mC]*eA*eG*eG*e[5mC]) [compound 445522] | 0% | 0% | 44% | 63% | 74% | 59% | 71% | 83% | 82% | 81% | 92% | 89% | 36% | 50% | 61% | 70% | 73% | 77% | 80% | 82% | Inhibition of Factor XI protein relative to the PBS control (Factor XI protein; Day −5): 0%; Inhibition of Factor XI protein relative to the PBS control (Factor XI protein; Day −14): 2% |
| 445531 (antisense eG*eG*e[5mC]*eA*eT*dT*dG*dG*dT*dG*d[5mC]*dA*d[5mC]*eA*eG*eT*eT*eT) [compound 445531] | 8% | 16% | 52% | 61% | 77% | 44% | 64% | 78% | 86% | 91% | 93% | 66% | 9% | 22% | 23% | 27% | 29% | 32% | 32% | 37% | Inhibition of Factor XI protein relative to the PBS control (Factor XI protein; Day −5): 1%; Inhibition of Factor XI protein relative to the PBS control (Factor XI protein; Day −14): 0% |
| ISIS 416850: gapmer of Table 8 (antisense eT*eG*e[5mC]*eA*e[5mC]*dA*dG*dT*dT*dT*d[5mC]*dT*dG*dG*d[5mC]*eA*eG*eG*e[5mC]*e[5mC]) |  |  |  |  |  |  |  |  |  |  |  |  |  |  |  |  |  |  |  |  | Factor XI mRNA in liver (in words) (Factor XI mRNA; cynomolgus monkeys, day 55, in comparison to the PBS control): significant reduction of Factor XI mRNA; Factor XI protein levels (in words) (Factor XI protein; cynomolgus monkeys, Example 30): time-dependent decrease in protein levels |
